Source: patent publication US10532985B2, “Heterocycle and carbocycle derivatives having TRKA inhibitory activity” (Shionogi & Co., Ltd., priority 2014, dated 2020)
Where two headings read alike, the source gives them in different places.

Target: T1, human TrkA (Homo sapiens, UniProt P04629)
T1 construct: purchased Lifetechnologies PV3144
Assay: Test Example 2: Human TrkA Inhibition Assay
Format: biochemical
Description: After the incubation for 90 min at room temperature, ten μL of termination buffer (100 mmol/L HEPES, 40 mmol/L ethylenediaminetetraacetic acid (EDTA), 10 mmol/L magnesium chloride, 0.003 vol % Brij-35, 0.004 vol % Tween20, 1 mmol/L DTT and 0.16 vol % Coating Reagent 3) was added in each well to stop the enzyme reaction. Fluorescent intensities (FI) of phosphorylated and non-phosphorylated fluorescent substrates were measured by LabChip EZReader II (Caliper LifeSciences, Inc.) and conversion ratio (CR) was calculated by the following formula-1. The CR in the well applied with DMSO alone was used as a negative control and the CR in the well without applying TrkA was used as a positive control. The inhibitory effect of each compound on TrkA phosphorylation was calculated by the following formula-2. CR (%)=(FI of phosphorylated substrate/(FI of phosphorylated substrate+FI of non-phosphorylated substrate))×100 (Formula-1) Inhibitory effect on TrkA phosphorylation (%)=(1−(CR in compound treated well−CR in positive control)/(CR in negative control−CR in positive control))×100. (Formula-2)

[1] = human TrkA inhibition, Test Example 2, class symbols A/B/C, read-out: IC50_nM
[2] = Test Example 2, human TrkA 2.5 nmol/L, ATP 500 μmol/L, 90 min at room temperature, read-out: TrkA inhibitory activity IC50

T1 sequence (P04629 33-796): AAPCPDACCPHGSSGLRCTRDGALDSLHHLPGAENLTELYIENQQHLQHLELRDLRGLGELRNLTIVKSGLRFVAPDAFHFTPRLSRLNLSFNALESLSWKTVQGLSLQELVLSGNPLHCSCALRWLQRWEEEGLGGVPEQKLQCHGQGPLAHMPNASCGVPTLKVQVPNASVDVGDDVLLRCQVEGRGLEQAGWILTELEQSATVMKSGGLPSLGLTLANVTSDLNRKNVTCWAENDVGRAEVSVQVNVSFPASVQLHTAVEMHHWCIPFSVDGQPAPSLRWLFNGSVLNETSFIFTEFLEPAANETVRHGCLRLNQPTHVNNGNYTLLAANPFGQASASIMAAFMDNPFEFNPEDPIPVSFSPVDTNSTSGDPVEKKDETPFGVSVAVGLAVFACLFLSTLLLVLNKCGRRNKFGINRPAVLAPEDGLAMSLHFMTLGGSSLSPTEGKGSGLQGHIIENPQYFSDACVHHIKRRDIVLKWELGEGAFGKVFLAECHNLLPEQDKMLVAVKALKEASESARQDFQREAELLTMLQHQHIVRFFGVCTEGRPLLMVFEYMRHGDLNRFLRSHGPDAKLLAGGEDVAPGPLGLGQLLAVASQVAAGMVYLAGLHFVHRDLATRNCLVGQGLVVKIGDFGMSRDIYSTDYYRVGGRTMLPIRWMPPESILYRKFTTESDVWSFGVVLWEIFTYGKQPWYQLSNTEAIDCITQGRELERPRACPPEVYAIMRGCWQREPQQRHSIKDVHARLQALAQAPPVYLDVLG

Structure (SMILES)	IC50 [1] [µM]	also measured
COCCCN1[C@@H]2CC[C@H]1[C@@H](c1ccc(F)c(F)c1)[C@@H]2NC(=O)Nc1c(C)c(-c2cnn(C)c2)nn1-c1ccccc1 (racemic) [Compound I-70]	> 1	
COCCN1C[C@@H](NC(=O)Nc2c(C)c(-c3cnn(C)c3)nn2-c2ccccc2)[C@H](c2cccc(-c3cncnc3)c2)C1 (racemic) [Compound I-59]	> 1	
COCCN1C[C@@H](NC(=O)Nc2c(C)c(-c3cnn(C)c3)nn2-c2ccccc2)[C@H](c2cccc(-c3ccccc3C#N)c2)C1 (racemic) [Compound I-55]	0.1 to 1	
COCCN1[C@@H]2CC[C@H]1[C@@H](c1ccc(F)c(F)c1)[C@@H]2NC(=O)Nc1c(C)c(-c2cnn(C)c2)nn1-c1ccccc1 (racemic) [Compound I-30]	> 1	
Cc1c(-c2cnn(C)c2)nn(-c2ccccc2)c1NC(=O)N[C@@H]1CCC[C@H]1c1ccccc1 (racemic) [Compound I-13]	> 1	
COCCN1C[C@@H](NC(=O)Nc2c(C)c(-c3cnn(C)c3)nn2-c2ccccc2)[C@H](c2cccc(C(=O)OC)c2)C1 (racemic) [Compound I-19]	> 1	
COCC(CN1CC(F)(F)C1)N1C[C@@H](NC(=O)Nc2c(C)c(-c3cnn(C)c3)nn2-c2ccccc2)[C@H](c2ccc(F)c(F)c2)C1 (stereo partly shown) [Compound I-106]		IC50 [2]: 0.079 µM
Cc1c(-c2cnn(C)c2)nn(-c2ccccc2)c1NC(=O)N[C@H]1[C@H](c2ccc(F)c(F)c2)[C@@H]2CC[C@H]1N2Cc1csnn1 (racemic) [Compound I-71]		IC50: 0.3 µM
Cc1c(-c2cnn(C)c2)nn(-c2ccccc2)c1NC(=O)N[C@@H]1C[C@@H](C)N(C(=O)OC(C)(C)C)[C@H]1c1ccc(F)c(F)c1 (racemic) [Compound I-76]	> 1	
COCCN1C[C@@H](NC(=O)Nc2c(C)c(-c3cnn(C)c3)nn2-c2ccccc2)[C@H](c2cccc(C(N)=O)c2)C1 (racemic) [Compound I-21]	> 1	
COCCN1C[C@@H](NC(=O)Nc2c(C)c(-c3cnn(C)c3)nn2-c2ccccc2)[C@H](c2cccc(-c3cccc(C#N)c3)c2)C1 (racemic) [Compound I-52]	0.1 to 1	
Cc1c(-c2cnn(C)c2)nn(-c2ccccc2)c1NC(=O)NC1CCCCC1Cc1ccc(Cl)cc1 (stereo not shown) [Compound I-14]	> 1	
CCN1[C@@H]2CC[C@H]1[C@@H](c1ccc(F)c(F)c1)[C@@H]2NC(=O)Nc1c(C)c(-c2cnn(C)c2)nn1-c1ccccc1 (racemic) [Compound I-69]	> 1	
COCCN1C[C@@H](NC(=O)Nc2c(C)c(-c3cnn(C)c3)nn2-c2ccccc2)[C@H](c2cccc(-c3cccc(C(=O)OC)c3)c2)C1 (racemic) [Compound I-57]	0.1 to 1	
COCCN1C[C@@H](NC(=O)Nc2c(C)c(-c3cnn(C)c3)nn2-c2ccccc2)[C@H](c2cccc(-c3ccccc3)c2)C1 (racemic) [Compound I-48]	< 0.1	
COCCN1C[C@@H](NC(=O)Nc2c(C)c(-c3cnn(C)c3)nn2-c2ccccc2)[C@H](c2ccc3c(c2)OCCO3)C1 (racemic) [Compound I-128]	0.1 to 1	
COCCN1C[C@@H](NC(=C[N+](=O)[O-])Nc2c(C)c(-c3cnn(C)c3)nn2-c2ccccc2)[C@H](c2ccccc2)C1 [Compound I-146]		IC50 [2]: 1.8 µM
COCCN1C[C@@H](NC(=O)Nc2c(C)c(-c3cnn(C)c3)nn2-c2ccccc2)[C@H](C2CCCCC2)C1 (racemic) [Compound I-9]	0.1 to 1	
COC1CCC1N1C[C@@H](NC(=O)Nc2c(C)c(-c3cnn(C)c3)nn2-c2ccccc2)[C@H](c2ccc(F)c(F)c2)C1 (stereo partly shown) [Compound I-114]		IC50 [2]: 0.12 µM
COCCN1C[C@@H](N(C)C(=O)Nc2c(C)c(-c3cnn(C)c3)nn2-c2ccccc2)[C@H](c2ccccc2)C1 (racemic) [Compound I-17]	> 1	
COCCC1C[C@@H](NC(=O)Nc2c(C)c(-c3cnn(C)c3)nn2-c2ccccc2)[C@H](c2ccccc2)C1 (stereo partly shown) [Compound I-85]	< 0.1	
Cc1c(-c2cnn(C)c2)nn(-c2ccccc2)c1NC(=O)N[C@@H]1C[C@@H](C)N[C@H]1c1ccc(F)c(F)c1 (racemic) [Compound I-77]	> 1	
Cc1c(-c2cnn(C)c2)nn(-c2ccccc2)c1NC(=O)N[C@@H]1CC(O)C[C@H]1c1ccccc1 (stereo partly shown) [Compound I-168]		IC50 [2]: 7 µM
COCCN1C[C@@H](NC(=O)Nc2c(C)c(-c3cnn(C)c3)nn2-c2ccccc2)[C@H](c2ccc3c(c2)NCCO3)C1 (racemic) [Compound I-162]	> 1	
COCCN1C[C@@H](NC(=O)Nc2c(C)c(-c3cnn(C)c3)nn2-c2ccccc2)[C@H](c2nc3ccccc3o2)C1 (racemic) [Compound I-156]	> 1	
COCC(CSC)N1C[C@@H](NC(=O)Nc2c(C)c(-c3cnn(C)c3)nn2-c2ccccc2)[C@H](c2ccc(F)c(F)c2)C1 (stereo partly shown) [Compound I-130]		IC50 [2]: 0.46 µM
COCCN1C[C@@H](NC(=O)Nc2c(C)c(-c3cnn(C)c3)nn2-c2ccccc2)[C@H](c2cccc(N(C)C)c2)C1 (racemic) [Compound I-171]	> 1	

Further lines, with some results ahead:

IC50 [1] [µM]	Structure (SMILES)	also measured
0.1 to 1	C=C1C[C@@H](NC(=O)Nc2c(C)c(-c3cnn(C)c3)nn2-c2ccccc2)[C@H](c2ccc(F)c(F)c2)C1 (racemic) [Compound I-135]	
> 1	Cc1c(-c2cnn(C)c2)nn(-c2ccccc2)c1NC(=O)N[C@@H]1CN(CCc2ccccc2)C[C@H]1c1ccc(F)c(F)c1 [Compound I-62]	
0.1 to 1	COCC(CN(C)C)N1C[C@@H](NC(=O)Nc2c(C)c(-c3cnn(C)c3)nn2-c2ccccc2)[C@H](c2ccc(F)c(F)c2)C1 (stereo partly shown) [Compound I-115]	
0.1 to 1	CNC(=O)C(COC)N1C[C@@H](NC(=O)Nc2c(C)c(-c3cnn(C)c3)nn2-c2ccccc2)[C@H](c2ccc(F)c(F)c2)C1 (stereo partly shown) [Compound I-137]	
> 1	Cc1c(-c2cnn(C)c2)nn(-c2ccccc2)c1NC(=O)N[C@@H]1CN(CO)C[C@H]1c1ccc(F)c(F)c1 (racemic) [Compound I-67]	
> 1	Cc1c(-c2cnn(C)c2)nn(-c2ccccc2)c1NC(=O)N[C@@H]1C[N+](C)(C)C[C@H]1c1ccc(F)c(F)c1 [Compound I-25]	
> 1	COCCC(=O)N1C[C@@H](NC(=O)Nc2c(C)c(-c3cnn(C)c3)nn2-c2ccccc2)[C@H](c2ccc(F)c(F)c2)C1 [Compound I-27]	
0.1 to 1	COCC(C(N)=O)N1C[C@@H](NC(=O)Nc2c(C)c(-c3cnn(C)c3)nn2-c2ccccc2)[C@H](c2ccc(F)c(F)c2)C1 (stereo partly shown) [Compound I-116]	
> 1	Cc1c(-c2cnn(C)c2)nn(-c2ccccc2)c1NC(=O)N[C@@H]1CN(CCCS(C)(=O)=O)C[C@H]1c1ccc(F)c(F)c1 [Compound I-64]	
> 1	Cc1c(-c2cnn(C)c2)nn(-c2ccccc2)c1NC(=O)N[C@@H]1CN(Cc2nccn2C)C[C@H]1c1ccc(F)c(F)c1 [Compound I-159]	
< 0.1	Cc1c(-c2cnn(C)c2)nn(-c2ccccc2)c1NC(=O)N[C@@H]1CN(C(CO)c2ccco2)C[C@H]1c1ccc(F)c(F)c1 (stereo partly shown) [Compound I-108]	
< 0.1	COCC(CNO)N1C[C@@H](NC(=O)Nc2c(C)c(-c3cnn(C)c3)nn2-c2ccccc2)[C@H](c2ccc(F)c(F)c2)C1 (stereo partly shown) [Compound I-92]	
0.1 to 1	COCC(CN1CCC1)N1C[C@@H](NC(=O)Nc2c(C)c(-c3cnn(C)c3)nn2-c2ccccc2)[C@H](c2ccc(F)c(F)c2)C1 (stereo partly shown) [Compound I-119]	
0.1 to 1	Cc1c(-c2cnn(C)c2)nn(-c2ccccc2)c1NC(=O)N[C@@H]1CN(CC2CCCO2)C[C@H]1c1ccc(F)c(F)c1 (stereo partly shown) [Compound I-24]	
0.1 to 1	Cc1c(-c2cnn(C)c2)nn(-c2ccccc2)c1NC(=O)N[C@@H]1CN(C2COC2)C[C@H]1c1ccc(F)c(F)c1 [Compound I-37]	
0.1 to 1	COCC(Cn1ccnc1)N1C[C@@H](NC(=O)Nc2c(C)c(-c3cnn(C)c3)nn2-c2ccccc2)[C@H](c2ccc(F)c(F)c2)C1 (stereo partly shown) [Compound I-127]	
> 1	COCCN1C[C@@H](NC(=O)Nc2c(C)c(-c3cnn(C)c3)nn2-c2ccccc2)[C@H](c2cccc(-c3cccnc3)c2)C1 (racemic) [Compound I-56]	
< 0.1	COCC(C[n+]1ccccc1)N1C[C@@H](NC(=O)Nc2c(C)c(-c3cnn(C)c3)nn2-c2ccccc2)[C@H](c2ccc(F)c(F)c2)C1 (stereo partly shown) [Compound I-110]	
> 1	Cc1c(-c2cnn(C)c2)nn(-c2ccccc2)c1NC(=O)N[C@@H]1CN(CCCc2ccccc2)C[C@H]1c1ccc(F)c(F)c1 [I 63]	
> 1	COC(=O)NCCN1C[C@@H](NC(=O)Nc2c(C)c(-c3cnn(C)c3)nn2-c2ccccc2)[C@H](c2ccc(F)c(F)c2)C1 [Compound I-41]	
0.1 to 1	COCOCCN1C[C@@H](NC(=O)Nc2c(C)c(-c3cnn(C)c3)nn2-c2ccccc2)[C@H](c2ccc(F)c(F)c2)C1 [Compound I-80]	
< 0.1	COCC(CNC(N)=O)N1C[C@@H](NC(=O)Nc2c(C)c(-c3cnn(C)c3)nn2-c2ccccc2)[C@H](c2ccc(F)c(F)c2)C1 (stereo partly shown) [Compound I-111]	
0.1 to 1	COCCN1C[C@@H](NC(=O)C(O)c2c(C)c(-c3cnn(C)c3)nn2-c2ccccc2)[C@H](c2ccc(F)c(F)c2)C1 (stereo partly shown) [Compound I-79]	
> 1	COCCN1C[C@@H](NC(=O)Nc2c(C)c(-c3cnn(C)c3)nn2-c2ccccc2)[C@H](c2ccc3nccn3c2)C1 (racemic) [Compound I-165]	
> 1	COCC(CNC(=N)N)N1C[C@@H](NC(=O)Nc2c(C)c(-c3cnn(C)c3)nn2-c2ccccc2)[C@H](c2ccc(F)c(F)c2)C1 (stereo partly shown) [Compound I-145]	
